Like-named read-outs stand apart in the source and are kept apart here.
Key:
[1] = system: muscarinic cholinergic receptors (guinea pig ileum); assay: Muscarinic cholinergic agonism, guinea pig ileum; assay type: cell-based; settings: Cavia porcellus; isolated guinea pig ileum, contraction, log-probit analysis; read-out: Musc. agonism ileum ED50
Method: Muscarinic cholinergic agonism, guinea pig ileum
Tyrode solution (NaCl 137 mM, KCl 2.7 mM, CaCl2 1.8 mM, MgCl2 1.1 mM, NaH2 PO4 0.32 mM, NaHCO3 4.8 mM, glucose 5.0 mM) foregassed with oxygen.
A guinea pig is killed by a blow on its head and exsanguinated. The caudal part (about 15 cm) of ileum is removed and cleaned in Tyrode solution. Three ileum pieces (2.5-3.0 cm long) are cut and placed separately in 10 ml organ baths containing Tyrode solution. Each specimen is fixed to a pin in the bottom of the organ bath and connected through a spring to a Grass FT 03 transducer (isotonic measurement). The specimens are kept under a tone of 1.0 g.
Concentration response curves to acetylcholine and test drugs are obtained by adding alternately acetylcholine and the test drugs in Tyrode solution to the both in 3-6 different concentrations. Each concentration is allowed to exert its maximal contracting effect before the tissue is washed and the next concentration is added.
From the concentration effect curves the […] values for acetylcholine and the test drugs are calculated by log-probit analysis.

[2] = biological target: muscarinic cholinergic receptors; assay: 3H-PrBCM binding to muscarinic cholinergic receptors (brain); settings: rat whole brain minus cerebellum; 1.5 nM 3H-PrBCM, 30° C.
Method: ^3 --H-PrBCM binding to muscarinic cholinergic receptors
Whole brain minus cerebellum of a rat was homogenized in 10 vol icecold 0.32M sucrose, pH 7.4. The homogenate was centrifuged at 600 g for 10 minutes and the supernatant at 25000 g for 55 min. at 4° C. with rehomogenization of the pellet in 0.32M sucrose. Incubation tubes in triplicate received at 30° C. test substance and tissue suspension. After 10 min. of incubation ligand (NEN,28-44 Ci/mmol) was added (final conc. of ^3 H-PrBCM: 1.5 nM). After 15 min. of incubation the reaction was stopped by addition of sodiumthiosulphate. The samples were filtered through Whatman GF/B filters (25 mm). The tubes and filters were rinsed twice with buffer. Non-specific binding was determined in the presence of 2.5 μM atropine. IC50 values were calculated by log probit analysis.

[3] = system: isoniazide-induced seizures in mice; assay: Isoniazide antagonism (convulsions); assay type: in vivo; settings: Mus musculus, ip, read-out: Isoniazide antagonism ED50
Method: Isoniazide 300 mg/kg s.c.
Five mice are used for each dose level. Immediately after administration of test substance, isoniazide 300 mg/kg is injected s.c. This dose of isoniazide induces intermittent tonic clonic seizures within 60 minutes.
The calculations are performed as an "on-line procedure" on the EDP-terminal. The results are recorded as % increase in time until convulsions occur and, ED50 values were determined.

[4] = system: pain threshold in mice; assay: Mouse Grid Shock (pain threshold); assay type: in vivo; settings: ip, read-out: Grid shock MED
Method: The mouse grid consists of a perspex cage with wire grid bottom and a perspex lid, on which is placed a microphone sensitive to the frequency of mouse-squeak. A stimulator with motordriven potentiometer applies a sequence of square wave impulses of continuously increasing milliamperage to the grid. Frequence of impulses 20 cycles/sec., duration 5 msec. Milliamperage is recorded on a digital amperemter connected to the stimulator. Activation of the microphone by a mouse-squeak cuts off the current and the final milliamperage appear on the meter.
Five mice are used for each dose level. Each mouse serves as its own control. Prior to the administration of test substance the animals are placed on the grid one at a time, and the pain threshold is determined by increasing the current intensity until the mouse squeaks. The pain threshold may be read on the milliampermeter. Fifteen minutes and 30 minutes after administration of test substance the mice are tested again and the pain thresholds recorded.
Analgesic effect is present when the pain threshold is increased over the predosing value (control value). The results are stated as % increase in pain threshold calculated on the basis of the control value. The registration can also be done as an on-line procedure. In this case the punching instruction and punching cards will be provided automatically, and the results will be registered as a minimal effective dose (MED) determined after van der Waerden's X-test.

[5] = system: heat stimulus reaction in rats; assay: Hot Plate Test; assay type: in vivo; settings: Rattus norvegicus, sc, 0.5 h, s.c., 55° C. hot plate, 30 minutes after injection
Method: A group of 10 rats was used for each dose. Each rat was placed on a 55° C. hot plate and the reaction time in seconds was recorded from the moment the rat was placed on the plate until the rat reacted to the heat stimulus. The criteria for reaction were licking of paws, lifting of legs or jumping. The rat was removed from the plate immediately after the reaction. The rat was rejected if the reaction time was more than 10 seconds. After control testing the test substance was injected subcutaneously. The rat was tested on the hot plate 30 minutes after the injection and the reaction times were recorded. A cut-off time of 30 seconds was used. The results were expressed as mean percent effect (MPE), and ED50 values were calculated.

[6] = system: AcCh receptors; settings: background statement; cited from earlier work
[7] = cited from earlier work
[8] = peripheral administration; cited from earlier work
[9] = peripheral administration; cited from earlier work; remark: listed apart in the source
[10] = mice, test compound i.p., isoniazide 300 mg/kg s.c., time until convulsions
[11] = mice, minimal effective dose, increase in pain threshold, test substance i.p. (may be tested orally)

SMILES	EC50 [1]	IC50 [2]	ED50 [3, 10]	minimal effective dose [4, 11]	ED50 [5]	AcCh agonist [6]	hydrolysis of ester group in vivo [7]	penetration of the BBB [8]	central effects [9]	ED50 [3]	minimal effective dose [4]
COc1noc2c1CNCC2C (racemic) [O,7-Dimethyl-THPO, 3-Methoxy-7-methyl-4,5,6,7-tetrahydroisoxazolo[4,5-c]pyridine]	13 µM	12 µM	110 µmol/kg	98 µmol/kg	> 98 µmol/kg	–	–	–	–	–	–
COC(=O)C1=CCCN(C)C1 [Arecoline, methyl 1-methyl-1,2,5,6-tetrahydropyridine-3-carboxylate]	–	–	–	–	–	AcCh agonist	very rapidly hydrolyzed in vivo	capable of penetrating the BBB after peripheral administration	very weak and frequently negligible central effects	–	–
COc1noc2c1CN(C)CC2 [O,5-Dimethyl-THPO, 3-Methoxy-5-methyl-4,5,6,7-tetrahydroixoxazolo[4,5-c]pyridine]	0.83 µM	27 µM	29 µmol/kg	49 µmol/kg	99 µmol/kg	–	–	–	–	–	–
C=CCOc1noc2c1CNCC2 [O--Allyl-THPO, 3-Allyloxy-4,5,6,7-tetrahydroisoxazolo[4,5-c]pyridine]	> 13 µM	9.6 µM	23 µmol/kg	46 µmol/kg	> 92 µmol/kg	–	–	–	–	–	–
c1ccc(COc2noc3c2CNCC3)cc1 [O--Benzyl-THPO, 3-Benzyloxy-4,5,6,7-tetrahydroisoxazolo[4,5-c]pyridine]	> 13 µM	32 µM	19 µmol/kg	> 150 µmol/kg	> 75 µmol/kg	–	–	–	–	–	–
CCCCOc1noc2c1CNCC2 [O--Butyl-THPO, 3-Butoxy-4,5,6,7-tetrahydroisoxazolo[4,5-c]pyridine]	> 13 µM	15 µM	> 170 µmol/kg	> 170 µmol/kg	> 86 µmol/kg	–	–	–	–	–	–
CC=CCOc1noc2c1CNCC2 [O--Crotyl-THPO, 3-(2-Butenyloxy)-4,5,6,7-tetrahydroisoxazolo[4,5-c]pyridine]	> 13 µM	14 µM	< 43 µmol/kg	170 µmol/kg	> 87 µmol/kg	–	–	–	–	–	–
CCOc1noc2c1CN(C)CC2 [O--Ethyl-5-Methyl-THPO, 3-Ethoxy-5-methyl-4,5,6,7-tetrahydroisoxazolo[4,5-c]pyridine]	1.6 µM	2.4 µM	41 µmol/kg	> 91 µmol/kg	> 91 µmol/kg	–	–	–	–	–	–
CCOc1noc2c1CNCC2 [O--Ethyl-THPO, 3-Ethoxy-4,5,6,7-tetrahydroisoxazolo[4,5-c]pyridine]	3.4 µM	6 µM	7.3 µmol/kg	> 98 µmol/kg	> 98 µmol/kg	–	–	–	–	–	–
CC(C)COc1noc2c1CNCC2 [O--Isobutyl-THPO, 3-Isobutoxy-4,5,6,7-tetrahydroisoxazolo[4,5-c]pyridine]	> 13 µM	> 13 µM	48 µmol/kg	> 86 µmol/kg	> 86 µmol/kg	–	–	–	–	–	–
CC(C)Oc1noc2c1CNCC2 [O--Isopropyl-THPO, 3-Isopropoxy-4,5,6,7-tetrahydroisoxazolo[4,5-c]pyridine]	> 13 µM	3.5 µM	19 µmol/kg	> 46 µmol/kg	> 91 µmol/kg	–	–	–	–	–	–
COc1noc2c1CN(Cc1ccccc1)CC2 [O--Methyl-5-Benzyl-THPO, 3-Methoxy-5-benzyl-4,5,6,7-tetrahydroisoxazolo[4,5-c]pyridine]	> 13 µM	> 50 µM	71 µmol/kg	> 71 µmol/kg	> 71 µmol/kg	–	–	–	–	–	–
CCN1CCc2onc(OC)c2C1 [O--Methyl-5-Ethyl-THPO, 3-Methoxy-5-ethyl-4,5,6,7-tetrahydroisoxazolo[4,5-c]pyridine]	> 13 µM	15 µM	84 µmol/kg	84 µmol/kg	–	–	–	–	–	–	–
COc1noc2c1CNCC2 [O--Methyl-THPO, 3-Methoxy-4,5,6,7-tetrahydroisoxazolo[4,5-c]pyridine]	1.8 µM	45 µM	2.8 µmol/kg	26 µmol/kg	62 µmol/kg	–	–	–	–	–	–
C#CCOc1noc2c1CNCC2 [O--Propargyl-THPO, 3-(2-Propynyloxy)-4,5,6,7-tetrahydroisoxazolo[4,5-c]pyridine]	1.2 µM	5.8 µM	3 µmol/kg	11 µmol/kg	86 µmol/kg	–	–	–	–	–	–
CCCOc1noc2c1CNCC2 [O--Propyl-THPO, 3-Propoxy-4,5,6,7-tetrahydroisoxazolo[4,5-c]pyridine]	> 13 µM	10 µM	50 µmol/kg	> 91 µmol/kg	> 91 µmol/kg	–	–	–	–	–	–
Oc1noc2c1CNCC2 [THPO, 3-Hydroxy-4,5,6,7-tetrahydroisoxazolo[4,5-c]pyridinium bromide, reference compound]	> 13 µM	–	–	–	> 90 µmol/kg	–	–	–	–	> 1500 µmol/kg	> 1500 µmol/kg
